Consider 67 compounds from PubChem BioAssay AID624344 (Sanford-Burnham Center for Chemical Genomics, 2012).

One assay has as its system Cytotoxicity. The experiment in a line: NFkB reporter suppression in cystic fibrosis bronchial cells – cell-based, uHTS hits, panel, cytotoxicity readout, dose response (AID 624344). To be noted: CF bronchial epithelial cells, mean of runs.
Assay in assay [1]: as above
The conditions noted are these: CF bronchial epithelial cells, PAF-induced NFkB reporter inhibition; with PAF, mean of runs.

Activity calls are given as the source filed them. No rule for the calls is given here. Square brackets hold non-standard residues; d marks the D form. Peptide text beside a SMILES is read from it. NMeY = CN[C@@H](Cc1ccc(O)cc1)C(=O)O; NMeF = CN[C@@H](Cc1ccccc1)C(=O)O; 2Abz = Nc1ccccc1C(=O)O

With `C/C(=N/NC(=O)c1cccs1)c1ccc(NC(=O)COc2ccc(Cl)cc2)cc1`, in the assay with Cytotoxicity, the IC50 was 26.5 µM. Also, in assay [1], the IC50 result is “inactive”.

`Cc1ccc2nc(C(F)(F)F)c(C#N)c(N)c2c1`: the IC50 with Cytotoxicity was 9.13 µM; in assay [1], 3.26 µM.

Take `CC(C)(C)C(=O)/C(=C/c1ccncc1)n1cncn1`: the results for the IC50 (in the assay with Cytotoxicity; in assay [1]) were 15.1 µM and 2.22 µM, respectively.

Consider `c1cncc(CNc2ncnc3ccc(-c4ccoc4)cc23)c1`, for which the IC50 in the assay with Cytotoxicity is 50.1 µM (inactive); in assay [1], 1.39 µM.

For `CCOc1cc2c(cc1O)C(=NO)CC1C2CCC2(C)C(O)CCC12` (centres undefined), the IC50 with Cytotoxicity is 31 µM; in assay [1], 17.5 µM.

As to `CN(C)CCCN(C(=O)CCSc1ccccc1)c1nc2cc3c(cc2s1)OCO3`, the IC50 in the assay with Cytotoxicity is 26.1 µM; in assay [1], 9.46 µM.

Turning to `O=C(O)/C=C/c1ccc2c(-c3ccccc3)onc2c1`, the IC50 in the assay with Cytotoxicity is 4.73 µM; in assay [1], 1.81 µM.

Turning to `CC(=O)Oc1c(C(=O)c2nnc(C)o2)c(=O)n(Cc2ccccc2)c2ccccc12`, the IC50 was 14.9 µM in the assay with Cytotoxicity and 2.36 µM in assay [1].

For `O=C(/C=C/c1cccc([N+](=O)[O-])c1)n1cnc2ccccc21`, the IC50 in the assay on Cytotoxicity is 11.2 µM; in assay [1], 1.99 µM.

Regarding `C=C1C(=O)O[C@@H]2[C@H]1CC[C@H](C)[C@]1(O)CCC(=O)[C@@]21C`, the results for the IC50 (in the assay on Cytotoxicity; in assay [1]) were 40 µM and 2.37 µM, respectively.

Regarding `Cc1ncc(CC(=O)n2cc(C(=O)c3cc(Cl)ccc3O)cn2)s1`, the IC50 was 44.5 µM in the assay on Cytotoxicity and 7.56 µM in assay [1].

For `O=Nc1c(O)n(Cc2c(Cl)cccc2Cl)c2ccccc12`, the values for the IC50 (in the assay on Cytotoxicity; in assay [1]) were 49.2 µM and 5.45 µM, respectively.

In the case of `CCOC(=O)COc1ccc2ccccc2c1/C=C/[N+](=O)[O-]`, the IC50 is 4.6 µM in the assay with Cytotoxicity and 8.1 µM in assay [1].

Consider `c1cnc2ccc(-n3ccnc3)cc2c1`, for which the IC50 was 60 µM (inactive) in the assay with Cytotoxicity and 10.3 µM in assay [1].

For the compound `NC1(C(=O)O)CSSC1`, the concentration for half-maximal inhibition (IC50) was 35.6 µM with Cytotoxicity and 7.73 µM in assay [1].

Consider `Fc1ccccc1-c1csc(=Nc2cccnc2)n1CCCn1ccnc1`, for which the IC50 with Cytotoxicity is 48.4 µM; in assay [1] it was 5.92 µM.

Consider `O=S(=O)(Nc1nc2ccccc2nc1N1CCN(c2ccccc2F)CC1)c1ccc(Cl)cc1`, for which the values for the IC50 (in the assay on Cytotoxicity; in assay [1]) were 10.5 µM and 5.66 µM, respectively.

Regarding `CC1Sc2ccc(Cl)cc2-c2nc(N)ncc21` (centres undefined), the IC50 with Cytotoxicity is 75 µM (inactive); in assay [1], 6.98 µM.

In the case of `Cc1nc(N2CCC(C(N)=O)CC2)c2c(-c3cccs3)csc2n1`, the results for the IC50 (with Cytotoxicity; in assay [1]) were 33.5 µM and 3.23 µM, respectively.

On to `c1nc(NCc2ccc3c(c2)OCO3)c2cc(-c3ccoc3)ccc2n1`, for which the IC50 in the assay with Cytotoxicity is 5.93 µM; in assay [1] it was 0.34 µM.

On to `Nc1ncc(-c2ccccc2)c(-c2ccc(O)cc2O)n1`, for which the values for the IC50 (in the assay on Cytotoxicity; in assay [1]) were > 79 µM (inactive) and 4.01 µM, respectively.

In the case of `Cc1nc([N+](=O)[O-])c(Sc2nc3ccc([N+](=O)[O-])cc3[nH]2)n1Cc1ccccc1`, the IC50 in the assay on Cytotoxicity is 8.03 µM; in assay [1] it was 3.5 µM.

In the case of `CC(C)(C)OC(=O)NCCCCCNC(=O)c1nc[nH]c1C(=O)NCC(=O)OCc1ccccc1`, the concentration for half-maximal inhibition (IC50) in the assay with Cytotoxicity was 9.6 µM; in assay [1], 3.56 µM.

For the compound `COc1ccc(-c2csc(/C(C#N)=C\c3ccc(O)c([N+](=O)[O-])c3)n2)cc1OC`, the IC50 in the assay with Cytotoxicity was 45.9 µM; in assay [1], 2.82 µM.

For the compound `CC(C)C[C@@H](CN1CCCC1CN1C(=S)NC[C@@H]1Cc1ccc(O)cc1)N1C[C@H](Cc2ccc(O)cc2)N(CCc2ccccc2)C1=S` (some centres undefined), the IC50 was 18.2 µM with Cytotoxicity and 10.9 µM in assay [1].

Turning to `Cc1ccc(-c2c(C#N)c(N)n3c(nc4ccccc43)c2C#N)cc1`, the values for the IC50 (in the assay with Cytotoxicity; in assay [1]) were 5.34 µM and 2.89 µM, respectively.

`CCCCCc1cc(O)c2c(C)cc(=O)oc2c1`: the IC50 in the assay on Cytotoxicity is 7.62 µM; in assay [1] it was 4.83 µM.

In the case of `O=C(CN1C(=O)CCC1=O)Nc1nc(-c2nc3ccccc3s2)cs1`, the IC50 is > 79 µM (inactive) in the assay with Cytotoxicity and 4.92 µM in assay [1].

Regarding `COc1ccc2nc(Nc3nc(CSc4nc5ccccc5[nH]4)cc(=O)[nH]3)nc(C)c2c1`, the IC50 with Cytotoxicity was 44 µM; in assay [1], 5.97 µM.

As for `O=S(=O)(Nc1ccc(Cl)cc1NS(=O)(=O)c1ccccc1)c1ccccc1`, the IC50 with Cytotoxicity is 40.3 µM; in assay [1], 10 µM.

For `CC1CCN(Cc2c(C(=O)N/N=C/c3ccc(C(C)(C)C)cc3)nnn2-c2nonc2N)CC1`, the figures for the IC50 (with Cytotoxicity; in assay [1]) were 29.8 µM and 14.6 µM, respectively.

On to `Cc1cccc(C(=O)N2[C@@H](C(C)C)COc3cc(Br)ccc3S2(=O)=O)c1`, for which the IC50 in the assay with Cytotoxicity is 37.8 µM; in assay [1], 11.1 µM.

As to `O=S(=O)(c1cccc2cnccc12)N1CCCNCC1`, the figures for the IC50 (with Cytotoxicity; in assay [1]) were 8.16 µM and 4.07 µM, respectively.

As for `CC(=O)Nc1ccc(-c2ccnc3c2CC(C(=O)NCc2ccccc2)O3)cc1` (centres undefined), the IC50 (in the assay with Cytotoxicity; in assay [1]) was > 79 µM (inactive) each time.

Regarding `CC(C)C[C@@H]1NC(=O)[C@H](Cc2ccccc2)N(C)C(=O)[C@H](C)NC(=O)c2ccccc2NC(=O)[C@H](Cc2ccc(O)cc2)N(C)C1=O` (cyclo([2Abz]A[NMeF]L[NMeY])), the IC50 with Cytotoxicity was 6.59 µM; in assay [1], 3.42 µM.

On to `COc1cc2c(c(OC)c1OC)-c1ccc(NCc3ccccc3)c(=O)cc1C(NC(C)=O)CC2` (centres undefined), for which the IC50 in the assay with Cytotoxicity was 45.8 µM; in assay [1], 15.5 µM.

With `Cc1nc(N)c(C#N)c(-c2cccnc2)c1-c1ccccc1`, the IC50 in the assay with Cytotoxicity was 62.9 µM (inactive); in assay [1] it was 4.45 µM.

For the compound `CCc1c(C)nc2ccc(Br)cc2c1SCCC#N`, the IC50 is 24.8 µM in the assay on Cytotoxicity and 3.12 µM in assay [1].

With `COc1ccccc1NS(=O)(=O)c1ccc(-c2cnc(C3CC3)o2)cc1`, the IC50 is > 79 µM (inactive) in the assay with Cytotoxicity and 16.7 µM in assay [1].

Regarding `CCN(c1ccc(OC)cc1)c1ncnc2nc[nH]c12`, the values for the IC50 (with Cytotoxicity; in assay [1]) were > 79 µM (inactive) and 3.62 µM, respectively.

Consider `COc1ccc(-c2cc(=O)oc3cc(OC(=O)C4CCCCC4)c(Cl)cc23)cc1`, for which the IC50 was 61.6 µM (inactive) with Cytotoxicity and 0.302 µM in assay [1].

Consider `COc1cc(O)c(CC=C(C)C)c(O)c1C(=O)CCc1ccc(O)cc1`, for which the IC50 was 41.5 µM in the assay on Cytotoxicity and 5 µM in assay [1].

For the compound `COc1cc2cncc(Cc3ccc(Cl)cc3)c2cc1OC`, the IC50 was 20.9 µM in the assay on Cytotoxicity and 2.87 µM in assay [1].

Take `Cc1cc(C)c2nc(C(F)(F)F)c(C#N)c(N)c2c1`: the results for the IC50 (in the assay with Cytotoxicity; in assay [1]) were 24.6 µM and 0.827 µM, respectively.

Take `Cc1cnc(NC(=O)C2CC(=O)N(c3cccc(Cl)c3)C2)s1` (centres undefined): the IC50 was 29.1 µM in the assay with Cytotoxicity and 3.18 µM in assay [1].

Turning to `O=C(OC1CCOC1=O)c1ccccc1C(=O)c1ccc(Cl)c([N+](=O)[O-])c1` (centres undefined), the concentration for half-maximal inhibition (IC50) in the assay with Cytotoxicity is 7.46 µM; in assay [1], 4.44 µM.

On to `CCn1c(=O)c2c(cnn2C)c2ccccc21`, for which the IC50 with Cytotoxicity was 46.2 µM; in assay [1], 2.18 µM.

Turning to `Cc1cccc(N2CCN(C(=O)CCn3c(=S)[nH]c4cc5c(cc4c3=O)OCO5)CC2C)c1` (centres undefined), the IC50 is 18.5 µM with Cytotoxicity and 6.2 µM in assay [1].

With `COc1ccc(-c2cc(=O)oc3cc(O)ccc23)cc1`, the concentration for half-maximal inhibition (IC50) was 46.9 µM with Cytotoxicity and 1.89 µM in assay [1].

In the case of `Cc1ccc(-n2nnnc2Sc2ccc(S(=O)(=O)NCCN(C)C)cc2[N+](=O)[O-])cc1`, the IC50 in the assay on Cytotoxicity was 1.99 µM; in assay [1], 2.65 µM.

For `CCCc1cc(-c2[nH]ncc2-c2ccc3c(c2)OCCCO3)c(O)cc1O`, the results for the IC50 (in the assay with Cytotoxicity; in assay [1]) were 25.9 µM and 8.75 µM, respectively.

Regarding `O=C(NCCCSc1ccccc1)c1cc(Br)ccc1O`, the IC50 is 3.05 µM in the assay on Cytotoxicity and 4.8 µM in assay [1].

`COc1ccc(-c2cnc3c(NC=O)cc(-c4ccc(C(=O)N5CCOCC5)cc4)cn23)cc1OC`: the IC50 in the assay on Cytotoxicity was 14.7 µM; in assay [1], 2.94 µM.

Take `c1csc(CNc2ncnc3ccc(-c4ccoc4)cc23)c1`: the results for the IC50 (with Cytotoxicity; in assay [1]) were 7.68 µM and 0.194 µM, respectively.

`CC(C)CN=C(NS(=O)(=O)c1ccccc1)C(Cl)(Cl)Cl`: the IC50 in the assay on Cytotoxicity was 44.5 µM; in assay [1], 2.93 µM.

Consider `CC(C)C[C@@H](CN1CCC[C@@H]1CN1C(=S)NC[C@@H]1Cc1ccc(O)cc1)N1C[C@H](Cc2ccc(O)cc2)N(CC2CCCCC2)C1=S`, for which the IC50 in the assay on Cytotoxicity was 18.8 µM; in assay [1], 17 µM.

Turning to `CCN1CCN(Cc2ccc(NC(=O)c3ccc(C)c(NC(=O)C(=O)c4c[nH]c5ccccc45)c3)cc2C(F)(F)F)CC1`, the IC50 with Cytotoxicity is 10.4 µM; in assay [1], 1.27 µM.

With `O=C(N/N=C/c1ccccc1)c1[nH]c2ccc(Br)cc2c1-c1ccccc1`, the IC50 in the assay on Cytotoxicity is 40.6 µM; in assay [1], 6.11 µM.

`CC(=O)c1cccc(NC(=O)COC(=O)c2ccc(S(C)(=O)=O)c([N+](=O)[O-])c2)c1`: the IC50 with Cytotoxicity is 12.6 µM; in assay [1], 5.26 µM.

Turning to `CC(C)C[C@@H](CN1CCCC1CN1C(=S)NC[C@@H]1Cc1ccc(O)cc1)N1C[C@H](Cc2ccc(O)cc2)N(CC2CCCCC2)C1=S` (some centres undefined), the 50% inhibitory concentration (IC50) in the assay on Cytotoxicity is 19.8 µM; in assay [1], 9.1 µM.

With `COc1ccc(S(=O)(=O)c2c(O)c3ccc(C(=O)Nc4ccccc4Cl)cc3[nH]c2=O)cc1`, the IC50 was 37.8 µM with Cytotoxicity and 7.32 µM in assay [1].

Turning to `CC(=O)Oc1ccccc1C(=O)Oc1ccc(/C=N/n2cnnc2)cc1`, in the assay with Cytotoxicity, the IC50 was 59.5 µM (inactive). In assay [1], the IC50 result was “inactive”.

On to `O=c1[nH]nc(Sc2ncnc3sccc23)n1CCc1ccccc1`, for which the IC50 in the assay on Cytotoxicity was 19 µM; in assay [1], 3.07 µM.

For the compound `COc1cc(C2c3cc4c(c(O)c3CC3COC(=O)C32)OCO4)cc(OC)c1OC` (centres undefined), the IC50 with Cytotoxicity is > 79 µM (inactive). In addition, the IC50 entry in assay [1] was “inactive”.

For `CCOC(=O)c1c(-c2ccc(C)cc2)csc1NC(=O)c1ccc(N2C(=O)CCC2=O)cc1`, in the assay on Cytotoxicity, the IC50 is 61 µM (inactive). Also, the IC50 result in assay [1] is “inactive”.

Regarding `O=C1OC(Nc2nc(-c3ccc(F)cc3)cs2)c2ccccc21` (centres undefined), the results for the IC50 (in the assay with Cytotoxicity; in assay [1]) were 10.7 µM and 2.31 µM, respectively.

As for `CS(=O)(=O)c1ccc2nc(NC(=O)CCS(=O)(=O)c3ccccc3)sc2c1`, the IC50 in the assay with Cytotoxicity was > 79 µM (inactive); in assay [1] it was 4.88 µM.
